# ± gives the standard deviation.
# Assays:
# [1] = chemical recovery from spiked human plasma; higher = better extraction; conditions: pooled human plasma
# [2] = chemical recovery by SPE of plasma after PDMS sampling; higher = better extraction; conditions: pooled human plasma, extraction method: HLB SPE of plasma after PES
# [3] = extraction method: SPE only (HLB 96-well), PES comparison experiment
# [4] = extraction method: solvent precipitation (ACN + hexane)
# [5] = extraction method: PES+SPE (3 d PDMS equilibration then HLB SPE)
# [6] = extraction method: SPE only (HLB 96-well)
# 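Throughout, for chemical recovery by SPE of plasma after PDMS sampling: over 400 spiked chemicals quantified by LC-HRMS or GC-HRMS via internal standard calibration, recovery relative to spike mix added to unspiked plasma extract to correct matrix effects.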
"chemical recovery [1, 3] [%]",chemical recovery by SPE of plasma ([2]; equilibration time (d): 1) [%],chemical recovery by SPE of plasma ([2]; equilibration time (d): 3) [%],chemical recovery by SPE of plasma ([2]; equilibration time (d): 6) [%],"chemical recovery [1, 4] [%]","chemical recovery [1, 5] [%]",Compound,"chemical recovery [1, 6] [%]"
44.7 ± 7.9,0.209 ± 0.36,–,–,62.7 ± 5.7,–,CCCCCCCCCCCCNC [N-Methyldodecylamine],–
73.3 ± 9.3,–,36.6 ± 5.5,36.5 ± 9.1,70.2 ± 4.7,66 ± 2.3,COc1ccc2cc(C(C)C(=O)O)ccc2c1 (configuration not stated) [Naproxen],63.8 ± 1.9
–,–,1.02 ± 0.27,–,17 ± 2.7,–,Oc1nc(O)c2cn[nH]c2n1 [Oxypurinol],–
41.2 ± 3.3,24.1 ± 6,23.9 ± 1.9,23.3 ± 8.1,73 ± 7.5,26.4 ± 3.3,O=C(O)C(F)(F)C(F)(F)C(F)(F)F [Perfluorobutanoic acid],23.3 ± 2.6
20.8 ± 2.2,2.82 ± 2.2,2.33 ± 0.82,3.01 ± 1.1,–,–,c1ccc2c(c1)ccc1ccccc12 [Phenanthrene],8.44 ± 0.76
42.9 ± 6,45.8 ± 9.5,49.1 ± 3,47 ± 6.1,–,42.9 ± 3.5,CCc1ccc(CCOc2ccc(CC3SC(=O)NC3=O)cc2)nc1 (configuration not stated) [Pioglitazone],48.6 ± 3.3
61.1 ± 7.2,–,48.4 ± 2.3,44.5 ± 1.3,–,–,C[C@]12C=CC(=O)C=C1CC[C@@H]1[C@@H]2[C@@H](O)C[C@@]2(C)[C@H]1CC[C@]2(O)C(=O)CO [Prednisolone],–
43.8 ± 7.1,0.16 ± 0.11,0.172 ± 0.13,0.00932 ± 0.01,74.2 ± 4.5,0.204 ± 0.12,CC(CN1c2ccccc2Sc2ccccc21)N(C)C (configuration not stated) [Promethazin],55.2 ± 14
47.4 ± 8.5,41.3 ± 2.1,46.1 ± 2.4,39.8 ± 2.8,63.5 ± 3.5,–,O=C(c1ccc(OCCN2CCCCC2)cc1)c1c(-c2ccc(O)cc2)sc2cc(O)ccc12 [Raloxifene],–
36.2 ± 4.7,28.8 ± 5.2,29.5 ± 4.3,26.9 ± 3.6,–,–,CC[C@H]1OC(=O)[C@H](C)[C@@H](O[C@H]2C[C@@](C)(OC)[C@@H](O)[C@H](C)O2)[C@H](C)[C@@H](O[C@@H]2O[C@H](C)C[C@H](N(C)C)[C@H]2O)[C@](C)(O)C[C@@H](C)/C(=N\OCOCCOC)[C@H](C)[C@@H](O)[C@]1(C)O [Roxithromycin],–
69.7 ± 4.9,61.1 ± 13,78.9 ± 5.7,59.8 ± 3.9,–,–,O=C(O)c1ccccc1O [Salicylic acid],–
–,–,21.5 ± 3.9,30.9 ± 12,75 ± 2.5,–,CC(C)NCC(O)c1ccc(NS(C)(=O)=O)cc1 (configuration not stated) [Sotalol],20.9 ± 5.4
45.7 ± 3.6,49 ± 9.9,50.2 ± 5.5,48.5 ± 7.4,–,33.4 ± 3.4,COc1cc(NS(=O)(=O)c2ccc(N)cc2)nc(OC)n1 [Sulfadimethoxine],30.1 ± 3.6
38.5 ± 11,0.427 ± 0.08,0.167 ± 0.14,0.104 ± 0.056,–,0.265 ± 0.056,CC/C(=C(\c1ccccc1)c1ccc(OCCN(C)C)cc1)c1ccccc1 [Tamoxifen],39.4 ± 8.3
29.4 ± 10,–,30.4 ± 11,–,14.4 ± 1.4,–,CC(C)(c1cc(Br)c(O)c(Br)c1)c1cc(Br)c(O)c(Br)c1 [Tetrabromobisphenol A],–

Compound,"chemical recovery [1, 3] [%]",chemical recovery by SPE of plasma ([2]; equilibration time (d): 1) [%],chemical recovery by SPE of plasma ([2]; equilibration time (d): 3) [%],chemical recovery by SPE of plasma ([2]; equilibration time (d): 6) [%],"chemical recovery [1, 4] [%]","chemical recovery [1, 5] [%]","chemical recovery [1, 6] [%]"
c1ccc2sc(SNC3CCCCC3)nc2c1 [N-Cyclohexyl-2-benzothiazole-sulfenamide],44.1 ± 3.7,42.3 ± 7.4,43.6 ± 3.3,42.3 ± 4.2,–,–,–
COc1cc(OC)nc(NC(=O)NS(=O)(=O)c2ncccc2C(=O)N(C)C)n1 [Nicosulfuron],49.3 ± 3.4,51.6 ± 5.2,56 ± 2.5,50.3 ± 3.3,64.3 ± 2.2,–,44.7 ± 3.3
Clc1ccc(-c2ccc(Cl)cc2Cl)cc1 [PCB28],20.3 ± 4.4,1.11 ± 1,1.62 ± 0.27,1.51 ± 0.26,–,–,5.86 ± 1.6
Clc1ccc(Cl)c(-c2cc(Cl)ccc2Cl)c1 [PCB52],16.2 ± 3.2,1.19 ± 0.83,1.25 ± 0.28,1.09 ± 0.3,–,48.5 ± 8.4,3.67 ± 0.85
O=C(O)C(F)(F)C(F)(F)C(F)(F)C(F)(F)C(F)(F)C(F)(F)C(F)(F)C(F)(F)C(F)(F)F [Perfluorodecanoic acid],–,25.3 ± 4.6,24.1 ± 4.5,–,–,–,20.4 ± 10
CCCOc1nn(C(=O)NS(=O)(=O)c2ccccc2C(=O)OC)c(=O)n1C [Propoxycarbazone],43.2 ± 6.2,27.1 ± 5.6,32 ± 2.5,29.4 ± 1.4,75.6 ± 5.4,39.2 ± 4.4,31.4 ± 2.8
COc1nc(C)nc(NC(=O)NS(=O)(=O)c2ccccc2CCC(F)(F)F)n1 [Prosulfuron],42.7 ± 6.3,48.5 ± 11,50.6 ± 4.8,45.3 ± 5.2,75.5 ± 0.94,44.3 ± 3.7,37.9 ± 4.5
Cc1cnc2c(C(=O)O)c(Cl)ccc2c1 [Quinmerac],52.2 ± 6.4,54.5 ± 9.6,61.1 ± 6.2,56.5 ± 1.8,65.8 ± 4.1,43.6 ± 2.5,40.8 ± 3.5
CCCN(CC)CC1COC2(CCC(C(C)(C)C)CC2)O1 (configuration not stated) [Spiroxamine],43.7 ± 7.8,0.0924 ± 0.066,0.0829 ± 0.053,0.0434 ± 0.0086,–,0.223 ± 0.025,47.5 ± 0.85
